Where “and” joins values, the source holds several entries; their conditions need not be identical. Identical values can stand only once. Toxic doses and inconclusive results are not listed.
System: BDF1 mice, B16 melanoma ip, median survival T/C
Test: NCI In Vivo Anticancer Drug Screen. Data for tumor model B16 Melanoma (intraperitoneal) in B6D2F1 (BDF1) mice
Conditions: endpoint: median survival time, higher = longer survival
Outline: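 Compounds were tested in mice carrying transplantable tumors. Survival or tumor size was recorded, and each value is the treated-group measurement (T) divided by that of the vehicle-treated control group (C).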

[1] = dose: 6.25 mg/kg/injection, schedule: Q01DX009 (ip), vehicle: saline with Tween-80
[2] = dose: 12.5 mg/kg/injection, schedule: Q01DX009 (ip), vehicle: saline with Tween-80
[3] = dose: 25.0 mg/kg/injection, schedule: Q01DX009 (ip), vehicle: saline with Tween-80
[4] = dose: 100.0 mg/kg/injection, schedule: Q01DX009 (ip), vehicle: Klucel (hydroxypropylcellulose) (HPC)
[5] = dose: 200.0 mg/kg/injection, schedule: Q01DX009 (ip), vehicle: Klucel (hydroxypropylcellulose) (HPC)
[6] = dose: 400.0 mg/kg/injection, schedule: Q01DX009 (ip), vehicle: Klucel (hydroxypropylcellulose) (HPC)
[7] = dose: 100.0 mg/kg/injection, schedule: Q01DX009 (ip), vehicle: saline with Tween-80
[8] = dose: 200.0 mg/kg/injection, schedule: Q01DX009 (ip), vehicle: saline with Tween-80
[9] = dose: 50.0 mg/kg/injection, schedule: Q01DX009 (ip), vehicle: saline with Tween-80
[10] = dose: 12.5 mg/kg/injection, schedule: Q01DX009 (ip), vehicle: saline
[11] = dose: 25.0 mg/kg/injection, schedule: Q01DX009 (ip), vehicle: saline
[12] = dose: 50.0 mg/kg/injection, schedule: Q01DX009 (ip), vehicle: saline

CC/C(C)=C1\OC(=O)C(C)C(O)C(Cc2cccnc2)NC(=O)C(NC(=O)c2ncccc2O)C(C)OC1=O (stereo not given) was tested, and the T/C (dose: 0.75 mg/kg/injection, schedule: Q01DX009 (ip), vehicle: Klucel (hydroxypropylcellulose) (HPC)) was 118 % of control, the T/C (dose: 1.5 mg/kg/injection, schedule: Q01DX009 (ip), vehicle: Klucel (hydroxypropylcellulose) (HPC)) was 98 % of control and the T/C (dose: 3.0 mg/kg/injection, schedule: Q01DX009 (ip), vehicle: Klucel (hydroxypropylcellulose) (HPC)) was 99 % of control. For the same molecule, the T/C [1] was 87 % of control, the T/C [2] was 97 % of control and the T/C [3] was 96 % of control.
In the case of COc1ccc(Cl)cc1NC(=O)c1ccccc1Cl, the T/C [4] is reported as 102 % of control, the T/C [5] is reported as 108 % of control and the T/C [6] is reported as 100 % of control.
In the case of O=C1C(=C(C(F)(F)F)C(F)(F)F)CCc2ccccc21, the T/C (dose: 50.0 mg/kg/injection, schedule: Q04DX003 (ip), vehicle: Klucel (hydroxypropylcellulose) (HPC)) is reported as 95 % of control, the T/C (dose: 100.0 mg/kg/injection, schedule: Q04DX003 (ip), vehicle: Klucel (hydroxypropylcellulose) (HPC)) is reported as 95 % of control and the T/C (dose: 200.0 mg/kg/injection, schedule: Q04DX003 (ip), vehicle: Klucel (hydroxypropylcellulose) (HPC)) is reported as 100 % of control.
In the case of COc1cccc(/C=C/[N+](=O)[O-])c1, the T/C (dose: 5.0 mg/kg/injection, schedule: Q01DX009 (ip), vehicle: saline with Tween-80) is reported as 98 % of control, the T/C (dose: 10.0 mg/kg/injection, schedule: Q01DX009 (ip), vehicle: saline with Tween-80) is reported as 101 % of control and the T/C (dose: 20.0 mg/kg/injection, schedule: Q01DX009 (ip), vehicle: saline with Tween-80) is reported as 94 % of control and 98 % of control.
For COC(=O)c1cc(I)ccc1O, the T/C [7] was 102 % of control, the T/C [8] was 104 % of control and the T/C (dose: 400.0 mg/kg/injection, schedule: Q01DX009 (ip), vehicle: saline with Tween-80) was 102 % of control.
CCCCCNC(=O)Nc1cccc(Cl)c1C was tested, and the T/C [1] was 91 % of control, the T/C [2] was 104 % of control and the T/C [3] was 100 % of control. For the same molecule, the T/C [9] was 89 % of control and 103 % of control.
CCNc1nc(NCC)nc(OC)n1 was tested, and the T/C [9] was 117 % of control, the T/C (dose: 66.0 mg/kg/injection, schedule: Q01DX009 (ip), vehicle: saline with Tween-80) was 93 % of control and the T/C [7] was 95 % of control. The T/C (dose: 150.0 mg/kg/injection, schedule: Q01DX009 (ip), vehicle: saline with Tween-80) was 93 % of control and the T/C [8] was 105 % of control.
For Cc1cc2nc3ccc(=[N+](C)C)cc-3sc2cc1N, the T/C (dose: 3.12 mg/kg/injection, schedule: Q01DX009 (ip), vehicle: saline) was 116 % of control, the T/C [10] was 116 % of control and the T/C [11] was 107 % of control. The T/C [12] was 97 % of control.
With CC(=O)CC(=O)NC1CCCC1 the T/C [4] was 96 % of control, the T/C [5] was 96 % of control and the T/C [6] was 107 % of control.
In the case of O=C(Nc1ccc(Cl)cc1)Nc1ccccc1F, the T/C [7] is reported as 89 % of control and the T/C [8] is reported as 86 % of control.
For O=S(=O)(O)c1ccc(/C2=c3\cc/c([n-]3)=C(\c3ccc(S(=O)(=O)O)cc3)c3ccc([n-]3)/C(c3ccc(S(=O)(=O)O)cc3)=c3/cc/c([n-]3)=C(\c3ccc(S(=O)(=O)O)cc3)c3ccc2[n-]3)cc1.[Co], the T/C (dose: 3.13 mg/kg/injection, schedule: Q01DX009 (ip), vehicle: saline) was 111 % of control, the T/C (dose: 6.25 mg/kg/injection, schedule: Q01DX009 (ip), vehicle: saline) was 107 % of control and the T/C [10] was 108 % of control. The T/C [11] was 101 % of control.
O=c1oc(-c2ccccc2I)nc2ccccc12 was tested, and the T/C [4] was 99 % of control and the T/C [5] was 94 % of control.
For NC(=S)c1ncn(C2OC(CO)C(O)C2O)c1N (stereo not given), the T/C [10] was 107 % of control, the T/C [11] was 105 % of control and the T/C [12] was 105 % of control. The T/C (dose: 100.0 mg/kg/injection, schedule: Q01DX009 (ip), vehicle: saline) was 102 % of control, the T/C (dose: 200.0 mg/kg/injection, schedule: Q01DX009 (ip), vehicle: saline) was 103 % of control and the T/C (dose: 400.0 mg/kg/injection, schedule: Q01DX009 (ip), vehicle: saline) was 95 % of control.
In the case of Cc1c2cc[n+](C)c(C)c2cc2c1[nH]c1ccc(O)cc12, the T/C (dose: 2.5 mg/kg/injection, schedule: Q04DX003 (ip), vehicle: water) is reported as 117 % of control and 120 % of control and the T/C (dose: 10.0 mg/kg/injection, schedule: Q04DX003 (ip), vehicle: water) is reported as 150 % of control.

Reference: PubChem BioAssay AID192 (DTP/NCI, 2004)
